Here are results for 3 compounds from patent EP0518216A2, “N-/Arylethyl/-N-alkyl-2-(1-pyrrolidinyl)ethylamine derivatives for CNS disorders” (G.D. Searle & Co., priority 1991, dated 1992).

Test [1] concerns dynorphin A induced spinal cord injury model. Kind of test: Dynorphin A induced spinal cord injury model (hindlimb motor function). The test is classed as in vivo, rat. An excerpt: Neuroprotective properties of BD-1008 and selected compounds of this invention have been evaluated in the dynorphin A induced spinal cord injury model. Along with several other neuropeptides, dynorphin A has potent vasoconstrictory effects on the vasculature of the rat brain and spinal cord; thus it provides a convenient, reproducible pharmacological means to induce and study ischemic central nervous system injury. Furthermore, localized effects of this peptide on the lumbosacral spinal cord following L4-L5 intervertebral injection allows for simple and straightforward neurological appraisals through assessment of hindlimb motor function.

The target in test [2] is Sigma receptors. Kind of test: Sigma receptor binding assay with [3H]-(+)-3-PPP, crude P2 membranes. The conditions noted are these: guinea pig brain membranes; determined in independent experiments. On the procedure:
Sigma receptors were labeled with [^3H]-(+)-3-PPP (109 Ci/mmol).
For most compounds in the study, a concentration range of 0.0005-100 nM was appropriate. […] Twelve concentrations of unlabelled ligand were incubated with 3 nM [^3H](+)-3-PPP as described in Methods. The CDATA iterative curve fitting program (EMF Software, Inc., Baltimore, MD) was used to determine IC50 values. Values are the average of 2-4 experiments, ±SEM. Each experiment was carried out in duplicate. The Cheng-Prussoff equation^27 was then used to convert IC50 values to apparent Ki values.

Test [3] concerns the target PCP receptors. The test is described as follows: Phencyclidine (PCP) receptor binding assay with [3H]TCP. The conditions noted are these: guinea pig brain; determined in independent experiments.

Consider `CN(CCc1ccc(Cl)c(Cl)c1)CCN1CCCC1` [BD-1008], for which the “impact on the primary vascular responses to dynorphin A” value in test [1] (dynorphin A-induced reduction in lumbosacral blood flow) is “without any measurable impact”. Moreover, in test [1] (paralysis from a 20 nanomole dose of dynorphin A, L4-L5 intervertebral injection), the “neurological recovery from the flaccid hindlimb paralysis” value is “significantly improves neurological recovery”.

Take `CCCN1CCC[C@H](c2cccc(O)c2)C1` [[^3H]-(+)-3-PPP]: the Kd in test [2] was 27.4 nM.

For the compound `c1csc(C2(N3CCCCC3)CCCCC2)c1` [[^3H]TCP], binding in test [3] was put at a Kd of 25 nM.

The Kd is the equilibrium constant for the complex coming apart. A lower Kd goes with higher affinity.
